# Several values for one entry are separate records, joined by “and”; a condition that tells them apart may be missing. Identical values can stand only once. Toxic doses and inconclusive results are not listed.
# Test system: P388 leukemia ip, CD2F1 mice, survival T/C
# Assay: NCI In Vivo Anticancer Drug Screen. Data for tumor model P388 Leukemia (intraperitoneal) in CD2F1 (CDF1) mice
# Settings: endpoint: median survival time, higher = longer survival
# In short: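 Mice carrying the transplanted tumor received test compound or vehicle. Survival was recorded in each group, and the value is the treated-group measurement divided by that of the vehicle-treated control group.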
# [1] = dose: 60.0 mg/kg/injection, schedule: Q01DX005 (ip), vehicle: Klucel (hydroxypropylcellulose) (HPC)
# [2] = dose: 120.0 mg/kg/injection, schedule: Q01DX005 (ip), vehicle: Klucel (hydroxypropylcellulose) (HPC)
# [3] = dose: 240.0 mg/kg/injection, schedule: Q01DX005 (ip), vehicle: Klucel (hydroxypropylcellulose) (HPC)
# [4] = dose: 50.0 mg/kg/injection, schedule: Q01DX005 (ip), vehicle: saline with Tween-80
# [5] = dose: 100.0 mg/kg/injection, schedule: Q01DX005 (ip), vehicle: saline with Tween-80
# [6] = dose: 200.0 mg/kg/injection, schedule: Q01DX005 (ip), vehicle: saline with Tween-80
# [7] = dose: 100.0 mg/kg/injection, schedule: Q04DX003 (ip), vehicle: saline
# [8] = dose: 200.0 mg/kg/injection, schedule: Q04DX003 (ip), vehicle: saline
# [9] = dose: 400.0 mg/kg/injection, schedule: Q04DX003 (ip), vehicle: saline
# [10] = dose: 50.0 mg/kg/injection, schedule: Q01DX009 (ip), vehicle: saline
# [11] = dose: 50.0 mg/kg/injection, schedule: Q01DX009 (ip), vehicle: saline with Tween-80
# [12] = dose: 6.25 mg/kg/injection, schedule: Q01DX009 (ip), vehicle: saline with Tween-80
structure (smiles),measurement,setting,value
COc1ccc2oc(=O)n(N=C(C)C)c(=O)c2c1,T/C,[1],97 % of control
same,T/C,[2],95 % of control
same,T/C,[3],94 % of control
CCn1c2ccc([N+](=O)[O-])cc2c2c([N+](=O)[O-])c(N)ccc21,T/C,[4],92 % of control
same,T/C,[5],87 % of control
same,T/C,[6],90 % of control
NC(N)=N/N=C1/c2ccccc2/C(=N/N=C(N)N)C1[N+](=O)[O-],T/C,"dose: 25.0 mg/kg/injection, schedule: Q01DX001 (ip), vehicle: Klucel (hydroxypropylcellulose) (HPC)",112 % of control
same,T/C,"dose: 50.0 mg/kg/injection, schedule: Q01DX001 (ip), vehicle: Klucel (hydroxypropylcellulose) (HPC)",114 % of control
same,T/C,"dose: 100.0 mg/kg/injection, schedule: Q01DX001 (ip), vehicle: Klucel (hydroxypropylcellulose) (HPC)",114 % of control
same,T/C,"dose: 200.0 mg/kg/injection, schedule: Q01DX001 (ip), vehicle: Klucel (hydroxypropylcellulose) (HPC)",113 % of control
same,T/C,"dose: 400.0 mg/kg/injection, schedule: Q01DX001 (ip), vehicle: Klucel (hydroxypropylcellulose) (HPC)",111 % of control
COC(=O)/C=C/c1ccccc1-c1ccccc1/C=C/C(=O)OC,T/C,[7],105 % of control
same,T/C,[8],102 % of control
same,T/C,[9],100 % of control
[Cl][Cu][Cl].c1ccc2c(c1)Sc1ccccc1[N+]2=c1ccc2nc3ccccc3sc-2c1,T/C,[1],87 % of control
same,T/C,[2],95 % of control
CC(=O)C1C(=O)OC(C)(C)C1C=C(Cl)Cl (centres undefined),T/C,"dose: 100.0 mg/kg/injection, schedule: Q04DX002 (ip), vehicle: saline with Tween-80",101 % of control
same,T/C,"dose: 200.0 mg/kg/injection, schedule: Q04DX002 (ip), vehicle: saline with Tween-80",107 % of control
same,T/C,"dose: 400.0 mg/kg/injection, schedule: Q04DX002 (ip), vehicle: saline with Tween-80",109 % of control
CN(C)CCNc1ccc(O)c2c1C(=O)c1ccccc1C2=O,T/C,"dose: 5.0 mg/kg/injection, schedule: Q01DX009 (ip), vehicle: acid diluted with saline",104 % of control
same,T/C,"dose: 10.0 mg/kg/injection, schedule: Q01DX009 (ip), vehicle: acid diluted with saline",100 % of control
same,T/C,"dose: 20.0 mg/kg/injection, schedule: Q01DX009 (ip), vehicle: acid diluted with saline",100 % of control
same,T/C,"dose: 20.0 mg/kg/injection, schedule: Q01DX009 (ip), vehicle: distilled water + Tween-80",110 % of control
same,T/C,"dose: 40.0 mg/kg/injection, schedule: Q01DX009 (ip), vehicle: acid diluted with saline",124 % of control
same,T/C,"dose: 40.0 mg/kg/injection, schedule: Q01DX009 (ip), vehicle: distilled water + Tween-80",117 % of control
same,T/C,"dose: 80.0 mg/kg/injection, schedule: Q01DX009 (ip), vehicle: acid diluted with saline",153 % of control
same,T/C,"dose: 160.0 mg/kg/injection, schedule: Q01DX009 (ip), vehicle: distilled water + Tween-80",153 % of control
c1ccc2c(c1)CN1CCN=C1N2,T/C,"dose: 25.0 mg/kg/injection, schedule: Q01DX009 (ip), vehicle: saline",100 % of control
same,T/C,[10],94 % of control
C=C(C)C1Oc2ccc(C(C)=O)cc2C1OC(=O)/C(C)=C\C (centres undefined),T/C,"dose: 22.5 mg/kg/injection, schedule: Q01DX009 (ip), vehicle: other",107 % of control
same,T/C,"dose: 45.0 mg/kg/injection, schedule: Q01DX009 (ip), vehicle: other",111 % of control
same,T/C,"dose: 90.0 mg/kg/injection, schedule: Q01DX009 (ip), vehicle: other",107 % of control
same,T/C,"dose: 180.0 mg/kg/injection, schedule: Q01DX009 (ip), vehicle: other",107 % of control
Cc1ccc2ccc(CC(O)(c3ccccc3)c3ccccc3)nc2c1,T/C,[11],100 % of control
same,T/C,"dose: 100.0 mg/kg/injection, schedule: Q01DX009 (ip), vehicle: saline with Tween-80",88 % of control
O=C1CN(C2CC2N2CC(=O)OC(=O)C2)CC(=O)O1 (centres undefined),T/C,"dose: 100.0 mg/kg/injection, schedule: Q04DX003 (ip), vehicle: saline with Tween-80",97 % of control
same,T/C,"dose: 400.0 mg/kg/injection, schedule: Q04DX003 (ip), vehicle: saline with Tween-80",89 % of control
O=C1NC(=O)c2c(Br)c(Br)c(Br)c(Br)c21,T/C,"dose: 50.0 mg/kg/injection, schedule: Q01DX009 (ip), vehicle: Klucel (hydroxypropylcellulose) (HPC)",109 % of control
same,T/C,"dose: 100.0 mg/kg/injection, schedule: Q01DX009 (ip), vehicle: Klucel (hydroxypropylcellulose) (HPC)",109 % of control
same,T/C,"dose: 200.0 mg/kg/injection, schedule: Q01DX009 (ip), vehicle: Klucel (hydroxypropylcellulose) (HPC)",105 % of control
same,T/C,"dose: 400.0 mg/kg/injection, schedule: Q01DX009 (ip), vehicle: Klucel (hydroxypropylcellulose) (HPC)",96 % of control
COc1ccc(OCCC(=O)O)cc1,T/C,"dose: 1.56 mg/kg/injection, schedule: Q01DX009 (ip), vehicle: saline with Tween-80",109 % of control
same,T/C,"dose: 3.12 mg/kg/injection, schedule: Q01DX009 (ip), vehicle: saline with Tween-80",112 % of control
same,T/C,[12],112 % of control and 86 % of control
same,T/C,"dose: 25.0 mg/kg/injection, schedule: Q01DX009 (ip), vehicle: saline with Tween-80",105 % of control
same,T/C,[11],102 % of control
O=C1C(Cl)=C(Cl)C(=O)C2=C1C1c3ccccc3C2c2ccccc21,T/C,"dose: 100.0 mg/kg/injection, schedule: Q01DX009 (ip), vehicle: saline sonified",105 % of control
same,T/C,"dose: 200.0 mg/kg/injection, schedule: Q01DX009 (ip), vehicle: saline sonified",110 % of control
same,T/C,"dose: 400.0 mg/kg/injection, schedule: Q01DX009 (ip), vehicle: saline sonified",100 % of control
CC(=C\c1ccc(Cl)c(Cl)c1)/C(C)=N/NC(N)=Nc1ccc(C)cc1,T/C,"dose: 25.0 mg/kg/injection, schedule: Q04DX002 (ip), vehicle: saline with Tween-80",103 % of control
same,T/C,"dose: 50.0 mg/kg/injection, schedule: Q04DX002 (ip), vehicle: saline with Tween-80",111 % of control
Cc1cc(C)nc(CC(O)c2ccc(C=O)cc2)c1 (centres undefined),T/C,"dose: 60.0 mg/kg/injection, schedule: Q01DX005 (ip), vehicle: saline with Tween-80",100 % of control
same,T/C,"dose: 120.0 mg/kg/injection, schedule: Q01DX005 (ip), vehicle: saline with Tween-80",94 % of control
same,T/C,"dose: 240.0 mg/kg/injection, schedule: Q01DX005 (ip), vehicle: saline with Tween-80",94 % of control
CC1(C)COC(=O)/C1=C1\SC(=O)NC1=O,T/C,[7],95 % of control
same,T/C,[8],94 % of control
same,T/C,[9],102 % of control
C[Si](C)(C)Cn1cc(F)c(=O)n(C[Si](C)(C)C)c1=O,T/C,[1],103 % of control
same,T/C,[2],103 % of control
same,T/C,[3],97 % of control
c1ccc2c(NCCCCCCCCCCCCCCCCNc3c4ccccc4nc4ccccc34)c3ccccc3nc2c1,T/C,"dose: 0.62 mg/kg/injection, schedule: Q01DX009 (ip), vehicle: other",98 % of control
same,T/C,"dose: 1.25 mg/kg/injection, schedule: Q01DX009 (ip), vehicle: other",101 % of control
same,T/C,"dose: 2.5 mg/kg/injection, schedule: Q01DX009 (ip), vehicle: other",105 % of control
same,T/C,"dose: 5.0 mg/kg/injection, schedule: Q01DX009 (ip), vehicle: other",109 % of control
same,T/C,"dose: 10.0 mg/kg/injection, schedule: Q01DX009 (ip), vehicle: other",108 % of control
CN1c2ccccc2C(C)(C)C12C=Cc1cc(O)ccc1O2 (centres undefined),T/C,[10],93 % of control
same,T/C,"dose: 100.0 mg/kg/injection, schedule: Q01DX009 (ip), vehicle: saline",96 % of control
same,T/C,"dose: 200.0 mg/kg/injection, schedule: Q01DX009 (ip), vehicle: saline",113 % of control
CC1(C)NC(=O)c2c(-c3ccccc3)c(-c3ccccc3)n(-c3ccccc3)c2N1,T/C,"dose: 50.0 mg/kg/injection, schedule: Q01DX009 (ip), vehicle: suspension in saline",96 % of control
same,T/C,"dose: 100.0 mg/kg/injection, schedule: Q01DX009 (ip), vehicle: suspension in saline",98 % of control
same,T/C,"dose: 200.0 mg/kg/injection, schedule: Q01DX009 (ip), vehicle: suspension in saline",101 % of control
CC(=O)OC12CC3CCC4C(CCC5(C)C(C(C)CCCC(C)C)CCC45)C3(C)CC1C(Cl)C2=O (centres undefined),T/C,[4],99 % of control
same,T/C,[5],96 % of control
same,T/C,[6],96 % of control
[NH-]C(CCC(N)=O)C(=O)O.[NH-]C(CCCN=C(N)N)C(=O)O.[Zn+2] (centres undefined),T/C,"dose: 25.0 mg/kg/injection, schedule: Q01DX005 (ip), vehicle: saline",100 % of control and 106 % of control
same,T/C,"dose: 50.0 mg/kg/injection, schedule: Q01DX005 (ip), vehicle: saline",103 % of control and 106 % of control
same,T/C,"dose: 100.0 mg/kg/injection, schedule: Q01DX005 (ip), vehicle: saline",110 % of control and 119 % of control
ClCC#CCCl,T/C,[12],102 % of control
same,T/C,"dose: 12.5 mg/kg/injection, schedule: Q01DX009 (ip), vehicle: saline with Tween-80",99 % of control
